In US20100113436A1, “DISPIRO TETRAOXANE COMPOUNDS AND THEIR USE IN THE TREATMENT OF MALARIA AND/OR CANCER” (priority 2006, published 2010):
pIC50: −log10 of the molar value. Converted amounts (≈) assume the structure as drawn. Read-outs that look alike come from different tables or passages of the source.

Key:
[1] = tested on: 3D7 strain of Plasmodium falciparum; assay: In vitro antimalarial activity, 48-h [3H]-hypoxanthine incorporation assay; assay type: cell-based
Method: The 3D7 strain of Plasmodium falciparum was used in this study. This strain is known to be […] Parasites were maintained in continuous culture using the method of Jensen and Trager^4. […] Stock drug solutions were prepared in 100% dimethylsulphoxide (DMSO) and diluted to the appropriate concentration using complete medium. Assays were performed in sterile 96-well microlitre plates, each plate contained 200 μl of parasite culture (2% parasitemia, 0.5% haematocrit) with or without 10 μl drug dilutions. Each drug was tested in triplicate and parasite growth compared to control wells (which constituted 100% parasite growth). […] IC50 values were calculated by interpolation of the probit transformation of the log dose-response curve.

[2] = tested on: Plasmodium falciparum HB3; assay: In vitro analysis versus strains of Plasmodium falciparum: HB3; assay type: cell-based
[3] = tested on: Plasmodium falciparum GC03; assay: In vitro analysis versus strains of Plasmodium falciparum: GC03; assay type: cell-based
[4] = tested on: Plasmodium falciparum V1S; assay: microbe, parasite or virus in culture; assay type: cell-based
[5] = tested on: Plasmodium falciparum TM4; assay: In vitro analysis versus strains of Plasmodium falciparum: TM4; assay type: cell-based
[6] = tested on: Plasmodium falciparum DD2; assay: In vitro analysis versus strains of Plasmodium falciparum: DD2; assay type: cell-based
[7] = tested on: Plasmodium falciparum PH3; assay: In vitro analysis versus strains of Plasmodium falciparum: PH3; assay type: cell-based
P. berghei ANKA [8] = assay: In vivo dose response screening against P. berghei ANKA; parameters: species or system mice; settings: for ED50: Plasmodium berghei
Method: Compound 29c, 29h and 291 were then subjected to dose response experiment against the P. berghei ANKA and the results are summarized in Table 7 below.

Plasmodium yoelli = assay: 4-day Peter's suppressive test; assay type: in vivo; settings: 4-day Peter's test, mice
Method: Selections of the compounds were screened for in vivo activity. In vivo data (Table 6) was determined using 30 mg/kg oral (po) and subcutaneous (sc) doses in a 4-days Peter's test. For subcutaneous administration, compounds were dissolved in 10% dimethylsulfoxide (DMSO) 0.05% Tween 80 (Sigma, Dorset, UK) in distilled water. For oral administration, compounds were dissolved in standard suspending formula (SSV) [0.5% sodium carboxymethylcellulose, 0.5% benzyl alcohol, 0.4% Tween 80, 0.9% NaCl (all Sigma)]. Subcutaneous (s.c) or oral (p.o) treatment was done with 0.2 ml of a solution of the test compound two hours (day 0) and on days 1, 2, and 3 post infections. Parasitaemia was determined by microscopic examination of Giemsa stained blood films taken on day 4. Microscopic counts of blood films from each mouse were processed using MICROSOFT@EXCELL spreadsheet (Microsoft Corp.) and expressed as percentage of inhibition from the arithmetic mean parasitaemias of each group in relation to the untreated group.

[9] = tested on: Salmonella typhimurium TA1535/pSK1002; assay: Salmonella typhimurium SOS/umu genotoxicity assay; settings: for MCE TA1535 (Maximum Co w/o effects on bacteria growth or β-galactosidase production): Salmonella typhimurium; for genotoxicity result in SOS/umu assay: both strains TA1535/pSK1002 and NM2009, highest concentration tested 50 μM, absence and presence of S-9 mix; for Max. Fold Increase / Potential genotox: −S9
Description: (§1) This assay is based on the ability of DNA damaging agents to induce the expression of the umu operon. The Salmonella strains have a plasmid pSK1002 which carries an umuC-lacZ fused gene that produces a hybrid protein with β-galactosidase activity and whose expression is controlled by the umu regulatory region.

[10] = tested on: Salmonella typhimurium NM2009; assay: Salmonella typhimurium SOS/umu genotoxicity assay; settings: for MCE NM2009 (Maximum Co w/o effects on bacteria growth or beta-galactosidase production): Salmonella typhimurium; for Max. Fold Increase / Potential genotox: −S9
Description: as §1

[11] = tested on: L6 Sketal muscle myoblast; assay: Cellular cytotoxicity screen, Resazurin reduction; assay type: cell-based, rat; settings: for Theraputic Index (TI): ratio TOX 50 to IC50 against 3D7 P. falciparum
Description: (§2) Values represent Tox 50 in μM. Cytotoxicity measured by Resazurin reduction.
(§3) Single full dose response curves generated using 10 independent drug concentrations. The 100 therapeutic index (TI) is the ration of the TOX 50 to the IC50 for the specific compound against the 3D7 P. falciparum isolate. The primary hepatocytes have demonstrable drug metabolising activity. The tetraoxane derivatives are remarkably non-toxic in these screens with in vitro TIs of between 5000 to 17000!.

[12] = tested on: H9c2(2-1) Myocardium, heart; assay: Cellular cytotoxicity screen, Resazurin reduction; assay type: cell-based, rat; settings: H9c(2-1); for Theraputic Index (TI): ratio TOX 50 to IC50 against 3D7 P. falciparum
Description: as §2, §3

[13] = tested on: HepG2 Human hepatocyte carcinoma; assay: Cellular cytotoxicity screen, Resazurin reduction; assay type: cell-based; settings: Hep2G; for Theraputic Index (TI): ratio TOX 50 to IC50 against 3D7 P. falciparum
Description: as §2, §3

[14] = tested on: MRC-5 Embryonal lung, diploid; assay: Cellular cytotoxicity screen, Resazurin reduction; assay type: cell-based, Human; settings: for Theraputic Index (TI): ratio TOX 50 to IC50 against 3D7 P. falciparum
Description: as §2, §3

P. berghei ANKA [15] = assay: In vivo dose response screening against P. berghei ANKA; settings: P. berghei ANKA infected mice; Table 9; sigmoidal curve calculation
Vero Kidney = assay: Cellular cytotoxicity screen, Resazurin reduction; assay type: cell-based, African green monkey, Cercopithecus aethiops; settings: for Theraputic Index (TI): ratio TOX 50 to IC50 against 3D7 P. falciparum
Description: as §2, §3

Plasmodium falciparum K1 = assay: In vitro analysis versus strains of Plasmodium falciparum: K1; assay type: cell-based; settings: K1 strain
[16] = 3D7, 3D7 strain, mean of triplicate results, Table 5, read-out: Mean IC50
[17] = Chloroquine Resistant Strains of the P. Berghei ANKA, Table 7
[18] = in Mus musculus, Chloroquine Resistant Strains of the P. Berghei ANKA, Table 7

Structure (SMILES): CCN(CC)CCCC(C)Nc1ccnc2cc(Cl)ccc12 (centres unmarked) [Chloroquine, reference compound]
- pIC50 ([1]; 3D7, read-out: Mean IC50): 8.07
- pIC50 ([2]; HB3): 8.18
- pIC50 [3]: 8.09
- pIC50 [4]: 7.08
- pIC50 [5]: 7.04
- pIC50 ([6]; DD2): 7.09
- pIC50 [7]: 7.14

Structure (SMILES): O=C(CC1CCC2(CC1)OOC1(OO2)C2CC3CC(C2)CC1C3)NC1CC1 (centres unmarked) [Tetraoxane 29c, Adamantyl-N-Cyclopropyl tetraoxane acetamide]
- pIC50 [1, 16]: 8.64
- ED90 (P. berghei ANKA [8]; [17]): 20.33 mg/kg
- ED50 (P. berghei ANKA [8]; [18]): 10.3 mg/kg
- melting point: 140 to 142 °C
- Percentage of inhibition at 30 mg/kg (p.o) (Plasmodium yoelli): 100%

Structure (SMILES): O=C(CC1CCC2(CC1)OOC1(CCCCC1)OO2)NC1CC1 [Tetraoxane 27c, N-Cyclopropyl-2-(7,8,15,16-tetraoxa-dispiro[5.2.5.2]hexadec-3-yl)-acetamide]
- melting point: 148 to 150 °C
- Percentage of inhibition at 30 mg/kg (p.o) (Plasmodium yoelli): 24.8%

Structure (SMILES): CN1CCN(C(=O)CC2CCC3(CC2)OOC2(OO3)C3CC4CC(C3)CC2C4)CC1 (centres unmarked) [Tetraoxane 29l]
- pIC50 [1, 16]: 9.30
- ED50 (P. berghei ANKA [8]; [18]): 2.7 mg/kg
- Percentage of inhibition at 30 mg/kg (p.o) (Plasmodium yoelli): 100%

Structure (SMILES): O=S(=O)(C1CC1)N1CCC2(CC1)OOC1(OO2)C2CC3CC(C2)CC1C3 [Tetraoxane 39d]
- solubility (physchem): 50 µM (≈ 19.3 µg/mL)
- pIC50 ([1]; 3D7, read-out: Mean IC50): 8.45
- ED50 (P. berghei ANKA [8]; P. berghei ANKA infected mice, Table 9): 7.93 mg/kg
- MCE TA1535 (Maximum Co w/o effects on bacteria growth or β-galactosidase production) [9]: 50 µM
- genotoxicity result in SOS/umu assay [9]: Negative
- Max. Fold Increase [9]: 1.05 ± 0.09 fold
- Potential genotox [9]: NEG
- MCE NM2009 (Maximum Co w/o effects on bacteria growth or beta-galactosidase production) [10]: 50 µM
- Max. Fold Increase [10]: 1.09 ± 0.03 fold
- Potential genotox [10]: NEG
- Tox 50 [11]: >50 µM
- Theraputic Index (TI) [11]: >14285
- Tox 50 [12]: >50 µM
- Theraputic Index (TI) [12]: >14285
- Tox 50 [13]: >50 µM
- Theraputic Index (TI) [13]: >14285
- Tox 50 [14]: >50 µM
- Theraputic Index (TI) [14]: >14285
- ED90 (P. berghei ANKA [15]): 49.77 mg/kg
- Tox 50 (Vero Kidney): >50 µM
- Theraputic Index (TI) (Vero Kidney): >14285

Structure (SMILES): O=C(CC1CCC2(CC1)OOC1(OO2)C2CC3CC(C2)CC1C3)N1CCS(=O)(=O)CC1 (centres unmarked) [Tetraoxane 32, 1-(1,1-Dioxo-1λ^6-thiommpholin-4-yl)-2-tetraoxa-dispiro-adamantyl ethanone]
- pIC50 [1, 16]: 7.62
- melting point: 189 to 191 °C

Structure (SMILES): O=C(CC1CCC2(CC1)OOC1(OO2)C2CC3CC(C2)CC1C3)N1CCSCC1 (centres unmarked) [Tetraoxane 29i, Tetraoxa-dispiro-(adamantly)-thiomorpholin-4-yl-ethanone]
- pIC50 [1, 16]: 8.23
- melting point: 150 to 152 °C

Structure (SMILES): O=C(CC1CCC2(CC1)OOC1(OO2)C2CC3CC(C2)CC1C3)N1CCOCC1 (centres unmarked) [Tetraoxane 29h, Adamantly-1-Morpholin-4-yl tetraoxane acetamide]
- solubility (physchem): 50 µM (≈ 20.4 µg/mL)
- pIC50 ([1]; 3D7, read-out: Mean IC50): 8.28
- ED90 (P. berghei ANKA [8]; [17]): 3.88 mg/kg
- ED50 (P. berghei ANKA [8]; [18]): 3.18 mg/kg
- pIC50 ([2]; HB3 strain, read-out: IC50): 8.85
- MCE TA1535 (Maximum Co w/o effects on bacteria growth or β-galactosidase production) [9]: 50 µM
- genotoxicity result in SOS/umu assay [9]: Negative
- Max. Fold Increase [9]: 1.04 ± 0.04 fold
- Potential genotox [9]: NEG
- MCE NM2009 (Maximum Co w/o effects on bacteria growth or beta-galactosidase production) [10]: 50 µM
- Max. Fold Increase [10]: 1.22 ± 0.03 fold
- Potential genotox [10]: NEG
- melting point: 139 to 140 °C
- Percentage of inhibition at 30 mg/kg (p.o) (Plasmodium yoelli): 100%
- pIC50 ([3]; GC03 strain, read-out: IC50): 9.05
- Tox 50 [11]: 23 µM
- Theraputic Index (TI) [11]: 7666
- Tox 50 [12]: >50 µM
- Theraputic Index (TI) [12]: >16666
- Tox 50 [13]: >50 µM
- Theraputic Index (TI) [13]: >16666
- pIC50 (Plasmodium falciparum K1): 9.10
- pIC50 ([5]; TM4 strain, read-out: IC50): 9.22
- pIC50 ([6]; DD2 strain, read-out: IC50): 9.22
- Tox 50 [14]: >50 µM
- Theraputic Index (TI) [14]: >16666
- pIC50 ([7]; PH3 strain, read-out: IC50): 9.52
- Tox 50 (Vero Kidney): >50 µM
- Theraputic Index (TI) (Vero Kidney): >16666
